Assay results reported in PMC13286573, “Exploration of precision coregulator TR-FRET identifies diverse signatures for LXR ligands relevant to discovery of nonlipogenic ABCA1 inducers” (eLife, 2026).
Entries after “also recorded” stand apart in the source; their conditions may differ.

Legend:
LXRβ [1] = target: T1, LXRβ (Homo sapiens, UniProt P55055); assay: SRC-1 coactivator recruitment to LXRβ, coregulator TR-FRET (CRT); assay type: biochemical; design: The CRT selectivity assay incorporates GST-tagged LXR-LBD; purchased Thermo Fisher Scientific PV4660; conditions: for LXR isoform selectivity from SRC-1 CRT: LXRβ versus LXRα
T1 sequence (P55055 222-460 limits assumed): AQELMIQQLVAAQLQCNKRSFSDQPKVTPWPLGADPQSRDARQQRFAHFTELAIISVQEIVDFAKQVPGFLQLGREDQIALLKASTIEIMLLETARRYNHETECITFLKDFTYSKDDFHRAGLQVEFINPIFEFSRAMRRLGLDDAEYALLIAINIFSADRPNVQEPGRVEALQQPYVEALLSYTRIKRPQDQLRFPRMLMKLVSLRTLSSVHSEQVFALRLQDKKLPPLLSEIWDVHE

LXRα [2] = target: T2, LXRα (Homo sapiens, UniProt Q13133); assay: SRC-1 coactivator recruitment to LXRα, coregulator TR-FRET (CRT); assay type: biochemical; design: The CRT selectivity assay incorporates GST-tagged LXR-LBD; purchased Thermo Fisher Scientific PV4657; conditions: maximal response relative to T0 (100%)
T2 sequence (Q13133 209-447 limits assumed): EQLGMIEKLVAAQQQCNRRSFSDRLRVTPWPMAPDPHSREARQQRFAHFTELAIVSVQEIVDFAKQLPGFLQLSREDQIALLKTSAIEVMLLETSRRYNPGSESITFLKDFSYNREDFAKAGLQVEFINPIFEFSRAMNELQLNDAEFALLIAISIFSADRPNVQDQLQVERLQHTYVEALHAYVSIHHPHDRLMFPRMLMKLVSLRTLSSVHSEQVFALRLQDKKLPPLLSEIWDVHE

HepG2 cells = assay: Cell viability in HepG2 cells under SRE-luc conditions; assay type: cell-based, human; conditions: conditions of SRE-luc measurements
Excerpt: Figure 5. Lipogenic response of HepG2 cells to treatment with liver X receptor (LXR) ligands. […] See Figure 3—figure supplement 1 for biological replicates. […] See Figure 5—figure supplement 1 for full concentration-response curves. Figure 5—figure supplement 1. Response of HepG2 cells to treatment with liver X receptor (LXR) ligands. (A–B) Lipogenic response of HepG2 cells to treatment with liver X receptor (LXR) ligands showing full concentration-response curves for biphenyl compounds shown in Figure 5E–F. (C) Cell viability in HepG2 cells under identical conditions to those used to obtain sterol response element (SRE)-luc data. [drawing 5]

LXR [3] = assay: Corepressor (NCOR2, SMRT2) binding to LXR, CRT, statements across isoforms; assay type: biochemical; conditions: monoplex CRT, absence of coactivator
LXRβ [4] = target: T1, LXRβ; assay: NCOR2 corepressor binding to LXRβ, CRT; assay type: biochemical; design: The CRT selectivity assay incorporates GST-tagged LXR-LBD; purchased Thermo Fisher Scientific PV4660; conditions: for activity at 1 µM: ligand 1 µM, interpolated from concentration-response, normalized, heat map Figure 9A, read-out: NCOR2β, relative % activity at 1 μM
LXRα [5] = target: T2, LXRα; assay: SMRT2 corepressor binding to LXRα, CRT; assay type: biochemical; design: The CRT selectivity assay incorporates GST-tagged LXR-LBD; purchased Thermo Fisher Scientific PV4657; conditions: ligand 1 µM, interpolated from concentration-response, normalized; heat map Figure 9A; read-out: SMRT2α, relative % activity at 1 μM
ABCA1 = assay: ABCA1-luc reporter assay in CCF-STTG1 astrocytoma cells; assay type: cell-based, human; conditions: for ABCA1 induction response/phenotype in CCF cells: normalized to T0
Excerpt: Astrocytoma CCF-STTG1 cells, stably transfected with an ABCA1-promoter linked to a luciferase response element, provide a model for ABCA1 induction in astrocytes ([Ben Aissa et al., 2021]). […] Apparent inverse agonist activity in cell-based assays can result from ‘true’ inverse agonist recruitment of corepressors or from antagonist activity towards endogenous sterol LXR agonists. Although we use serum-stripped media, antagonism of endogenous LXR agonists cannot be ruled out.
Low passage CCF-STTG1 cells (20,000 cells/well) were seeded in 96-well plates in media containing charcoal-stripped FBS and incubated at 37 °C and 5% CO2 for 24 hr prior to a 24 hr treatment. All compounds were dissolved in DMSO, and final DMSO concentrations never exceeded 1%. After a 24 hr incubation period, add a volume of ONE-GLOEX Reagent that is equal to the volume of culture medium in each well and incubate for 3–5 min on the shaker. The luminescent activity of compounds ([…], 10-fold dilution) was examined using the ONE-GLOEX assay (Promega). […] The assays were performed in duplicates for each concentration, and the EC50 values were determined from non-linear regression analysis of the dose-response curve generated in GraphPad Prism 9.

[6] = tested on: sterol response element (SRE); assay: SRE-luc reporter assay in HepG2 cells; assay type: cell-based, human
Excerpt: Our phenotypic high-throughput screen (HTS) approach to identify nonlipogenic ABCA1 Inducers (NLAI) originally used counterscreening with a SREBP1c-luciferase reporter (linked to the SREBF1 gene promoter) in human hepatocarcinoma HepG2 cells ([Ben Aissa et al., 2021]). Unwanted lipogenesis is mediated by LXR agonists via direct transcriptional activation and indirectly by the effects of SREBP1c ([Schultz et al., 2000]; [Brown and Goldstein, 1997]). SREBP1c enhances transcription of genes required for synthesis of fatty acids and TG and as the dominant isoform in liver is associated most closely with lipogenesis and TG elevation ([Brown and Goldstein, 1997]). […] Binding of SREBP1c to the sterol response element (SRE) induces transcription of lipogenic genes associated with elevated TG. To better model the lipogenic axis in hepatocytes, we use HepG2 cells stably transfected with a nanoluciferase reporter downstream of a SRE promoter (SRE-luc), activation of which requires SREBP1c maturation.
HepG2 cells were cotransfected with SRE (LDLR)-NlucP SuperPiggyBac Transposon and a separate Transposase plasmid (System Biosciences). Cells were expanded for multiple passages followed by selection with puromycin (1 μg/ml). Stable cells constitutively express GFP allowed for FACS enrichment and/or cell cloning. Initially, stable pools were compared to low expressing and high expressing enriched pools. The optimal pool was selected based on assay performance (Z’) and was grown and maintained as above, with the addition of 1.0 μg/mL of puromycin biweekly.
Cells were split into flasks containing CS medium (EMEM supplemented with 10% charcoal stripped FBS (Gibco A52567-01)) and 1% P/S and grown at 37 °C /5% CO2 for 48 hr before plating. Cells were plated in 384-well, white clear tissue culture plates (Greiner 781098) and allowed to grow at 37 °C /5% CO2 for 24 hr before medium was aspirated and compound dilutions prepared in CS medium were added. Following a 24 hr incubation, the medium was aspirated, and cells were lysed/luminescence quantified using the Nano-Glo Luciferase Assay System (Promega N1130).

LXRβ [7] = target: T1, LXRβ; assay: SMRT2 corepressor binding to LXRβ, CRT; assay type: biochemical; design: The CRT selectivity assay incorporates GST-tagged LXR-LBD; purchased Thermo Fisher Scientific PV4660; conditions: ligand 1 µM, interpolated from concentration-response, normalized; heat map Figure 9A; read-out: SMRT2β, relative % activity at 1 μM
LXRα [8] = target: T2, LXRα; assay: NCOR2 corepressor binding to LXRα, CRT; assay type: biochemical; design: The CRT selectivity assay incorporates GST-tagged LXR-LBD; purchased Thermo Fisher Scientific PV4657; conditions: for activity at 1 µM: ligand 1 µM, interpolated from concentration-response, normalized, heat map Figure 9A, read-out: NCOR2α, relative % activity at 1 μM
LXR [9] = assay: Categorization of ligands by CRT/pCRT signature; assay type: biochemical; conditions: response at 1 µM ligand compared with theoretical signatures
Excerpt: With the knowledge that, in pCRT, corepressors bind to the apo-receptor; whereas coactivator binding requires a ligand-induced conformational change, we can categorize all ligands using their CRT profiles. Ligands induce three LXR conformational ensembles with CoR (destabilizing D, stabilizing S, neutral N) and only two conformations with CoA (stabilizing S, neutral N) (Figure 9 (Table 1)). In categorizing ligands based upon these CRT characteristics, labels are needed.
The category for each ligand is not always identical for LXRα vs. LXRβ. Similarly, the phenotype associated with each classification is isoform dependent. Recruitment of CoA to LXRβ by FA, WA, and PA will activate transcription; whereas, lack of recruitment by SA, HA, and RA will antagonize transcription (Figure 9 (Table 1)). Stabilization of CoA and/or destabilization of CoR bound to LXRα is a derepression mechanism leading to activation/transcription for FA, WA, and RA; whereas partial activation is expected for PA.
To determine which LXR ligands fit with these theoretical CRT signatures, concentration-response curves were interpolated to measure normalized response at 1 µM ligand concentration and plotted as a heat map (Figure 9A).

monkeys = tested on: monkeys; design: method as in Stachel et al., 2016; conditions: 20 mg/kg qd p.o., 2 weeks, ref Stachel et al., 2016, cited from earlier work
[10] = tested on: Tg2576 familial Alzheimer’s disease (FAD) mice; design: method as in Stachel et al., 2016; conditions: subcutaneous, 3 weeks, 50 mg/kg/day; ref Stachel et al., 2016; cited from earlier work
cynomolgus monkeys = tested on: cynomolgus monkeys; design: method as in Groot et al., 2005; conditions: ref Groot et al., 2005; cited from earlier work
Hamsters = tested on: Hamsters; design: method as in Groot et al., 2005; conditions: ref Groot et al., 2005; cited from earlier work

| SMILES | activity at 1 µM (LXRβ [4]) [%] | activity at 1 µM (LXRα [5]) [%] | activity at 1 µM (LXRβ [7]) [%] | activity at 1 µM (LXRα [8]) [%] | LXR isoform selectivity from SRC-1 CRT (LXRβ [1]) | Corepressor (NCOR2, SMRT2) displacement or stabilization, across LXR isoforms (LXR [3]) | ABCA1 induction response/phenotype in CCF cells (ABCA1) | SRE activation response/phenotype in HepG2 [6] | also measured |
| --- | --- | --- | --- | --- | --- | --- | --- | --- | --- |
| CC(C)C(O)CC[C@@H](C)[C@H]1CC[C@H]2[C@@H]3CC=C4C[C@@H](O)CC[C@]4(C)[C@H]3CC[C@]12C (stereo partly drawn) [24HC, 24-hydroxycholesterol] |  |  |  |  | nonselective |  |  |  | Efficacy profile for SRC-1 recruitment to LXRβ (LXRβ [1]; maximal response relative to T0 (100%)): partial agonist; Efficacy profile for SRC-1 recruitment to LXRα (LXRα [2]): partial agonist; HepG2 cell viability/cytotoxicity (HepG2 cells): cytotoxic at higher concentrations |
| COc1ccc(NC2=C(c3ccccc3)C(=O)N(Cc3ccccc3)C2=O)cc1 [GSK3987] | 97.4 | 69.9 | 84 | 97.7 | weakly selective for LXRβ | strong agonist responses |  |  | CRT/pCRT signature category (LXR [9]): FA (full agonist (FA)) |
| C[C@H](CCOc1cccc(CC(=O)O)c1)N(Cc1cccc(C(F)(F)F)c1Cl)CC(c1ccccc1)c1ccccc1 [RGX-104] | 103 | 93.4 | 82 | 99.8 |  | strong agonist responses |  |  | Effect on NCOR2 binding to LXRβ (LXRβ [4]; monoplex CRT, absence of SRC1): displacement of NCOR2 from both LXR isoforms; Plasma LDL, HDL and TG (cynomolgus monkeys): robust time-dependent increase in TG and LDL; Liver TG (Hamsters): significantly increased liver TG; Plasma TG, LDL-C and VLDL-C (Hamsters): dose-dependent increase; Effect on NCOR2 binding to LXRα (LXRα [8]; monoplex CRT, absence of SRC1): displacement of NCOR2 from both LXR isoforms |

The next lines start with results.

| activity at 1 µM (LXRβ [4]) [%] | activity at 1 µM (LXRα [5]) [%] | activity at 1 µM (LXRβ [7]) [%] | activity at 1 µM (LXRα [8]) [%] | SMILES | LXR isoform selectivity from SRC-1 CRT (LXRβ [1]) | Corepressor (NCOR2, SMRT2) displacement or stabilization, across LXR isoforms (LXR [3]) | ABCA1 induction response/phenotype in CCF cells (ABCA1) | SRE activation response/phenotype in HepG2 [6] | also measured |
| --- | --- | --- | --- | --- | --- | --- | --- | --- | --- |
| 105 | 87.3 | 91.1 | 100 | CCOC(=O)Cn1nc(C(F)(F)F)cc1-c1ccc(-c2cccc(S(C)(=O)=O)c2)cc1 [ALX101] |  | less effective or ineffective in displacement of corepressors from LXRα | full agonist towards ABCA1 induction | partial agonist of SRE activation |  |
| 105 | 91.8 | 81.6 | 100 | Cc1cc(C)c(S(=O)(=O)N(Cc2ccc(-c3cccc(S(C)(=O)=O)c3)cc2)Cc2ccccc2F)c(C)c1 [BE1218] | most selective LXRβ agonists | ineffective in corepressor displacement from LXRα | partial agonist phenotype in both cell-based assays; also recorded: partial agonist response | partial agonist phenotype in both cell-based assays | Selectivity for ABCA1 induction versus SRE activation (potency correlation outliers) (ABCA1; CCF ABCA1-luc versus HepG2 SRE-luc): selectivity for ABCA1 induction |
| 103 | 87.9 | 87.9 | 95.1 | CC(C)[C@@](O)(C(=O)N1CCC(C2CCN(c3ccc(C(=O)N(C)C)c(Cl)c3)CC2)CC1)C(F)(F)F [MK9, (R)–2-chloro-4-(1'-(2-hydroxy-3-methyl-2-(trifluoromethyl)butanoyl)-[4,4'-bipiperidin]–1-yl)-N,N-dimethylbenzamide] | highly LXRβ-selective; also recorded: most selective LXRβ agonists | less effective or ineffective in displacement of corepressors from LXRα |  | activates lipogenesis in HepG2 cells | Liver fat content (monkeys; relative to control): no change in liver fat content; Increase in APOE and Aβ in cerebrospinal fluid (CSF) (monkeys): threefold; ABCA1 and apoE protein levels in the brain [10]: Significant increases in ABCA1 and apoE protein levels in the brain; Plasma or liver TG [10]: not accompanied by significant changes in plasma or liver TG |
